This is an account of results in patent publication US10919893B2, “Process for the preparation of crystalline form C of avibactam sodium” (Sandoz AG, priority 2017, dated 2021).

Series [1] deals with bacteria. The settings on record: at clinically relevant doses; cited from earlier work.
A short description of series [2]: solid-state stability of avibactam forms against moisture, temperature stress and storage. It counts as physicochemical.
The conditions of series [3]: cited from earlier work.

Counter-ions that a name gives are not always drawn.

`NC(=O)[C@@H]1CC[C@@H]2CN1C(=O)N2OS(=O)(=O)O` [Avibactam, [(2S,5R)-2-carbamoyl-7-oxo-1,6-diazabicylco[3.2.1]octan-6-yl] hydrogen sulfate]: in series [1], the “antibacterial activity in itself” value was “no antibacterial activity”.

`NC(=O)[C@@H]1CC[C@@H]2CN1C(=O)N2OS(=O)(=O)O` [form A, avibactam sodium]: the “behaviour upon further temperature stress” value in series [2] is reported as “dehydrates to the anhydrous form B”. Take `NC(=O)[C@@H]1CC[C@@H]2CN1C(=O)N2OS(=O)(=O)O` [form C, avibactam sodium]: the “polymorphic stability (conversion to other crystalline forms)” value in series [3] (ambient conditions and conditions of manufacturing of solid pharmaceutical dosage forms) is on record as “does not convert to other crystalline forms”. Turning to `NC(=O)[C@@H]1CC[C@@H]2CN1C(=O)N2OS(=O)(=O)O` [form E, avibactam sodium], the “temperature above which the form dehydrates to monohydrate form A” value in series [2] is “above 60 °C”. In addition, in series [3] (per WO 2011/042560 A1), the “relative humidity above which the form is particularly stable” value was more than 70%; the “stability during long storage and at higher temperature” value was “tends to lose water and to hydrolyze”.
